Test results taken from BindingDB's records for doi:10.7270/Q23F4N3R (Burnham Center For Chemical Genomics, 2011).

Assay: HK1 enzyme inhibitors – biochemical, selectivity assay for HKDC1 inhibitor project, dose response (AID 504763)
[1] = inactive by the depositor's call

SMILES | IC50 [1] | IC50
Cc1oc2c(c1C(=O)c1ccc(Cl)cc1)C(=O)C(=O)c1ccccc1-2 [3-(4-Chloro-benzoyl)-2-methyl-naphtho[1,2-b]furan-4,5-dione] | 40 µM | 
COc1ccc(C(=O)c2coc3c2C(=O)C(=O)c2ccccc2-3)cc1 [3-(4-Methoxy-benzoyl)-naphtho[1,2-b]furan-4,5-dione] | 27.2 µM | 
COCc1cc(C2C(C(=O)c3ccco3)C(=O)C(=O)N2CCOCCO)ccc1O (stereo unspecified) [3-(furan-2-carbonyl)-4-hydroxy-1-[2-(2-hydroxyethoxy)ethyl]-2-[4-hydroxy-3-(methoxymethyl)phenyl]-2H-pyrrol-5-one] |  | > 80 µM
O=C1C(=O)c2c(C(=O)c3ccccc3)coc2-c2ccccc21 [3-(phenylcarbonyl)benzo[g][1]benzofuran-4,5-dione] |  | > 80 µM
CCCCNC(=O)c1sc(=S)n2c1[nH]c(=O)c1ccc(C(=O)NCCc3ccc(OC)c(OC)c3)cc12 [3-N-butyl-8-N-[2-(3,4-dimethoxyphenyl)ethyl]-5-oxo-1-sulfanylidene-4H-[1,3]thiazolo[3,4-a]quinazoline-3,8-dicarboxamide] | 21.2 µM | 
Cc1ccc(S(=O)(=O)N=C2C=C(Nc3cccc(C(=O)O)c3)C(=O)c3ccccc32)c(C)c1 [3-[[(4E)-4-(2,4-dimethylphenyl)sulfonylimino-1-oxo-2-naphthalenyl]amino]benzoic acid] |  | 11 µM
O=C1C=C(c2c(O)ccc3ccccc23)c2ccccc2C1=O [4-(2-hydroxy-1-naphthalenyl)naphthalene-1,2-dione] |  | 5.1 µM
Cc1ccc(S(=O)(=O)N=C2C=C(Sc3nnc[nH]3)C(=O)c3ccccc32)cc1 [4-Methyl-N-[4-oxo-3-(2H-[1,2,4]triazol-3-ylsulfanyl)-4H-naphthalen-1-ylidene]-benzenesulfonamide] |  | 3.29 µM
CCN(CC)CCNc1cc(C)nc2c1C(=O)C(=O)C=C2N1CCCCC1 [4-[2-(diethylamino)ethylamino]-2-methyl-8-piperidin-1-yl-quinoline-5,6-dione] | 38.3 µM | 
CCOc1ccc(/C=C2/SC(=S)N(CCC(=O)Nc3ccc(C(=O)O)cc3)C2=O)cc1 [4-[3-[(5E)-5-[(4-ethoxyphenyl)methylidene]-4-oxo-2-sulfanylidene-1,3-thiazolidin-3-yl]propanoylamino]benzoic acid] |  | > 80 µM
Cc1cc(Oc2ccc(C(C)(C)C)cc2)nc(N2CCOCC2)n1 [4-[4-(4-tert-butylphenoxy)-6-methylpyrimidin-2-yl]morpholine] |  | > 80 µM
COC(=O)c1ccc(NCc2cc(O)ccc2O)cc1 [4-[(2,5-dihydroxyphenyl)methylamino]benzoic acid methyl ester] | 21.3 µM | 
Cc1ccccc1NC1=CC(=NS(=O)(=O)c2ccc(C(=O)O)cc2)c2ccccc2C1=O [4-[(E)-[3-(2-methylanilino)-4-oxonaphthalen-1-ylidene]amino]sulfonylbenzoic acid] |  | 2.84 µM
CCN(CC)c1ccc2c(c1)oc(=O)c1c(Cl)cc(=O)oc12 [4-chloranyl-8-(diethylamino)pyrano[3,2-c]chromene-2,5-dione] | 55.4 µM | 
CC(C)c1ccc(S(=O)(=O)N=C2C=C(Sc3nnc[nH]3)C(=O)c3ccccc32)cc1 [4-isopropyl-N-[(1Z)-4-oxo-3-(1H-1,2,4-triazol-3-ylthio)naphthalen-1(4H)-ylidene]benzenesulfonamide] |  | 5.87 µM
COc1ccc(S(=O)(=O)Nc2ccc(O)c3ccccc23)cc1 [4-methoxy-N-(4-oxidanylnaphthalen-1-yl)benzenesulfonamide] |  | > 80 µM
Cc1ccc(S(=O)(=O)Nc2c(O)ccc3ccccc23)cc1 [4-methyl-N-(2-oxidanylnaphthalen-1-yl)benzenesulfonamide] | 27.4 µM | 
O=C1C=C(N2CCCCC2)c2ccccc2C1=O [4-piperidin-1-ylnaphthalene-1,2-dione] |  | 2.39 µM
CC1=NOC(=O)/C1=C\c1ccc(-c2ccc(Cl)cc2Cl)o1 [4-{[5-(2,4-dichlorophenyl)-2-furyl]methylene}-3-methyl-5(4H)-isoxazolone] |  | > 80 µM
Cc1cc(C)n2nc(SCc3nnc(SCc4ccccc4C)s3)nc2n1 [5,7-dimethyl-2-[({5-[(2-methylbenzyl)sulfanyl]-1,3,4-thiadiazol-2-yl}methyl)sulfanyl][1,2,4]triazolo[1,5-a]pyrimidine] |  | 3.71 µM
O=C1C=CC(=O)c2c(O)c(CO)c(CO)c(O)c21 [5,8-dihydroxy-6,7-bis(hydroxymethyl)naphthalene-1,4-dione] |  | > 80 µM

SMILES | IC50 [1] | IC50
CCC(c1ccccc1)C(CC)c1cc(O)c(O)c(O)c1 (stereo unspecified) [5-(4-phenylhexan-3-yl)benzene-1,2,3-triol] |  | > 80 µM
Cc1cccc(N2C(=O)NC(=O)C(=Cc3ccc4c(c3)CCCN4Cc3ccccc3)C2=O)c1 [5-[1-(1-Benzyl-1,2,3,4-tetrahydro-quinolin-6-yl)-meth-(E)-ylidene]-1-m-tolyl-pyrimidine-2,4,6-trione] |  | > 80 µM
COC1=C(Br)C(=O)c2ncccc2C1=O [7-bromo-6-methoxyquinoline-5,8-dione] |  | 4.89 µM
COc1ccc2[nH]c3c4c(ccc3c2c1)C(=O)C=CC4=O [8-methoxy-11H-benzo[a]carbazole-1,4-dione] |  | > 80 µM
COc1cc2c(cc1OC)-c1cc(NCc3ccccn3)nc(=O)n1CC2 [9,10-dimethoxy-2-(2-pyridinylmethylamino)-6,7-dihydropyrimido[6,1-a]isoquinolin-4-one] | 67.4 µM | 
Cc1ccc(C)c(-n2c3nc(=O)[nH]c(=O)c-3cc3cc([N+](=O)[O-])ccc32)c1 [10-(2,5-Dimethyl-phenyl)-7-nitro-10H-pyrimido[4,5-b]quinoline-2,4-dione] |  | > 80 µM
COc1ccc(N2C3=C(CC4=C2CCCC4=O)C(=O)CCC3)cc1 [10-(4-methoxyphenyl)-3,4,6,7,9,10-hexahydro-1,8(2H,5H)-acridinedione] | 24 µM | 
Cc1ccc(-n2c3nc(=O)[nH]c(=O)c-3cc3cc([N+](=O)[O-])ccc32)cc1 [10-(4-methylphenyl)-7-nitropyrimido[4,5-b]quinoline-2,4-dione] |  | 19.4 µM
Cc1nc(COC(=O)c2cc(O)c3ccccc3c2O)cs1 [(2-methyl-1,3-thiazol-4-yl)methyl 1,4-bis(oxidanyl)naphthalene-2-carboxylate] | 25 µM | 
COC1=CC(/C=C(\C#N)c2nc3ccc(C)cc3[nH]2)C=C([N+](=O)[O-])C1=O (stereo unspecified) [(2Z,3E)-3-(3-methoxy-5-nitro-4-oxocyclohexa-2,5-dien-1-ylidene)-2-(5-methyl-1,3-dihydrobenzimidazol-2-ylidene)propanenitrile] |  | 18 µM
COC(=O)[C@@H]1[C@@H](C(=O)OC)C2(c3ccccc3-c3ccccc32)N(c2ccc(Cl)cc2)N1C#N [(3'S,4'R)-1'-(4-chlorophenyl)-2'-cyanospiro[fluorene-9,5'-pyrazolidine]-3',4'-dicarboxylic acid dimethyl ester] |  | > 80 µM
O=C(C=Cc1ccc(Br)cc1)NC(=S)Nc1ccc(S(=O)(=O)Nc2nccs2)cc1 [(E)-3-(4-bromophenyl)-N-[[4-(1,3-thiazol-2-ylsulfamoyl)phenyl]carbamothioyl]prop-2-enamide] |  | > 80 µM
CNCc1ccccc1Sc1cc(O)ccc1O [(Z)-2-butenedioic acid;2-[[2-(methylaminomethyl)phenyl]thio]benzene-1,4-diol] |  | 4.58 µM
CCCCC[C@H](O)/C=C/[C@@H]1[C@@H](C/C=C\CCCC(=O)OC)[C@@H](O)C[C@H]1O [MLS000028823] |  | > 80 µM
CCCc1nc2oc3c(NCC4CCCO4)ncnc3c2c2c1COC(C)(C)C2 (stereo unspecified) [MLS000042555] | 31.6 µM | 
CC(C)c1nc2oc3c(NCC4CCCO4)ncnc3c2c2c1COC(C)(C)C2 (stereo unspecified) [MLS000084034] |  | 2.36 µM
COc1ncnc2c1oc1nc(C(C)C)c3c(c12)CC(C)(C)OC3 [MLS000084533] |  | 12.5 µM
N#Cc1ccc(CSc2nnc(NC(=O)c3ccc4ncsc4c3)s2)cc1 [MLS000334839] |  | > 80 µM
O=C1C(Nc2ccccc2)=CC(=NS(=O)(=O)c2cccs2)c2ccccc21 [MLS000374486] |  | 6.56 µM
CC(C)Nc1nnc(SCC(=O)Nc2ccc3c(c2)C(=O)c2ccccc2C3=O)s1 [MLS000390413] | 22.3 µM | 
O=C1c2ccccc2-c2onc3ccc(Oc4ccccc4)c1c23 [MLS000525578] |  | > 80 µM

SMILES | IC50 [1] | IC50
O=[N+]([O-])c1ccc(Sc2nc3ccccc3o2)c([N+](=O)[O-])c1 [MLS000532050] |  | > 80 µM
O=C1C(Cl)=C(N2CCCCC2)C(=O)C(Cl)=C1c1cnc(N2CCCCC2)s1 [MLS000550549] | 71.6 µM | 
CCCc1nc2oc3c(OC)ncnc3c2c2c1COC(C)(C)C2 [MLS000559436] |  | 18.5 µM
COc1cc2c(cc1OC)-c1c(OC)c(OC)c(OC)c3ccnc(c13)C2=O [MLS000574936] |  | 10.1 µM
COc1cc(/C=C2\SC(c3ccc(C)cc3)=NC2=O)ccc1O [MLS000579809] |  | > 80 µM
COc1cc(C2c3c([nH]c(=O)[nH]c3=O)Nc3ccc4ccccc4c32)cc(OC)c1OC (stereo unspecified) [MLS000663320] |  | > 80 µM
O=c1c2ccccc2nc(/C=C/c2cccnc2)n1Cc1ccccc1 [MLS000709026] |  | > 80 µM
Cc1nc([N+](=O)[O-])c(Br)n1Cc1ccc(Cl)c(Cl)c1 [MLS000730654] |  | > 80 µM
Cc1ccc(SC2=C(Sc3ccc(C)cc3)C(=O)c3ccccc3C2=O)cc1 [MLS000756557] |  | 20 µM
O=C1C(Nc2ccc(O)cc2)=CC(=NS(=O)(=O)c2cccs2)c2ccccc21 [MLS000775432] |  | 6.28 µM
CCc1nc2sc3c(O)ncnc3c2c2c1CSC(C)(C)C2 [MLS000776813] |  | 21.8 µM
CC(C)c1nc2oc3c(O)ncnc3c2c2c1COC(C)(C)C2 [MLS000779024] |  | 5.26 µM
Cc1cc(C)c(S(=O)(=O)N=C2C=C(Nc3ccc(C(=O)O)cc3)C(=O)c3ccccc32)c(C)c1 [MLS000948031] | 27.3 µM | 
Cc1ccc(S(=O)(=O)N=C2C=C(Nc3cccc(C(=O)O)c3)C(=O)c3ccccc32)cc1 [MLS000948051] |  | 6.79 µM
CCOC(=O)CSc1nc2ccc(C)cc2n2cnnc12 [MLS000999625] |  | 12.9 µM
O=Cc1[nH]c2ccccc2c1N(C(=O)CCl)c1ccccc1 [MLS001029456] |  | > 80 µM
O=C(/C=C/c1ccco1)NCC(=O)NNC1=c2ccccc2=NC1=O [MLS001075666] |  | > 80 µM
N#CC(C(=O)CCl)c1nc2c(s1)CCc1ccccc1-2 (stereo unspecified) [MLS001171530] |  | 38.3 µM
CC(=O)N(C1=C(Cl)C(=O)c2ccccc2C1=O)c1ccc(C(=O)O)cc1 [MLS001196720] |  | 8.68 µM
